In patent US7566453B2, “Methods for treating melanomas” (Chugai Seiyaku Kabushiki Kaisha, priority 1998, dated 2009):

Experiment: Body weight change (toxicity) of myeloma-implanted mice, Example 2
Format: in vivo, SCID mouse
Conditions: melphalan administration (FIG. 10)
From the text: For evaluation of antitumor activity, a xenograft model was used. Thus, KPMM2, a human myeloma cell line derived from ascites of a patient with multiple myeloma was implanted to a male SCID mouse (FOX CHASE C. B17/Icr-Scid Jcl, purchased from Nippon Klea) via the tail vein. At this time, the tumor cells grow in the bone marrow and come to produce myeloma protein (M protein) in the peripheral blood. Furthermore, this model system is very close to an actual clinical condition in that it develops major symptoms of multiple myeloma in humans such as bone disorders, elevated blood calcium, and the like.
With regard to anti-human IL-6 receptor antibody, a stock solution that had been preserved at 12.1 mg/ml was diluted in sterile phosphate buffer to make 5 mg/ml. This was given to mice at 0.2 ml per animal via the tail vein on day 8 (1 mg per mouse). The control group received sterile phosphate buffer containing no antibody in a similar manner.
Melphalan (L-PAM, manufactured by Sigma Chemical Co.) that was suspended at 0.3 or 0.1 mg/ml in 0.2% CMC (carboxymethylcellulose) solution in water was used. This was given orally at 0.1 ml per 10 g body weight of mouse (3 or 1 mg/kg weight) for 5 consecutive days starting on day 1. The control group received 0.2% CMC solution in water containing no melphalan in a similar manner. […]

SMILES: NC(Cc1ccc(N(CCCl)CCCl)cc1)C(=O)O (stereo not shown) [melphalan]
- toxicity (inhibition of body weight gain): caused toxicity in mice and inhibited body weight gain
